# Test results taken from patent publication US20080003226A1, “Method to Reduce Hepatoxicity of Fas-Mediated Apoptosis-Inducing Agents” (APOXIS SA, priority 2004, published 2008).
# System: mesothelioma and ovarian cancer cell lines
# Assay: Cytotoxicity of MegaFasL as single agent and in combination with cisplatin in vitro
# Format: cell-based
# Conditions: compound alone
# Description: Use of the Fas-mediated apoptosis inducing agents defined above and more particularly hexamers of the soluble fraction of FasL as defined above as an adjuvant with existing chemotherapies is another embodiment of the present invention. […] Actually, the antitumor effectiveness of MegaFasL as single agent and in combination with cisplatin was evaluated first on mesothelioma and ovarian cancer cell lines in vitro.
compound,measurement,value
N.N.[Cl][Pt][Cl] [cisplatin],cell death,only marginal cell death
